Measured values reported in patent publication US11903958B2, “Therapeutic agents and methods of producing same” (GLYCOSYNNOVATIONS PTY LTD, priority 2016, dated 2024).

Experiments:
recombinant human IL-4 = target: T1, recombinant human IL-4 (Homo sapiens, UniProt P05112); experiment: TF-1 cell proliferation bioassay with rhIL-4; type: cell-based; details: rhIL-4 4 ng/ml; inhibitor 10 μg/ml and 2.5 μg/ml; 48 hours; FIG. 3
T1 sequence (P05112 25-153): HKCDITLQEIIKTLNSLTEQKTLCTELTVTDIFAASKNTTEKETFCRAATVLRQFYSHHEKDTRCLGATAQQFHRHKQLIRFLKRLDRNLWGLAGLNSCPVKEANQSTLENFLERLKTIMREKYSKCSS
Experimental: The various simplified sulphated glyconjugates inhibited the proliferation of an IL-4 responsive cell line to differing degrees. This occurs at very low doses and is not due to a toxic effect of the glycoconjugate because other, similarly sulfated polysaccharides (sucrose octasulfate), at the same concentrations of IL-4 and polysaccharide have no effect. These experiments utilize the TF-1 cells that are grown in 2 ng/ml recombinant human (rh) GM-CSF. TF-1 cells were originally established from a bone marrow sample from a person with severe pancytopenia. These cells are dependent on IL-3 or GM-CSF for long term growth and are responsive to a variety of human cytokines including human IL-4.
(§1) Briefly, proliferation assays were carried out in 96-well microplates suitable for such assays. […] When the effect of the different simplified sulfated glycoconjugates was measured, the wells also contained various concentrations of these molecules (10 μg/ml and 2.5 μg/ml) and the rhIL-4 concentration was held constant at 4 ng/ml. The cells proliferated for 48 hours, after which the number of cells present was quantified by staining with 20 μL per well of the CellTiter 96 Aqueous One reagent was incubated with TF1 cells for the last 3.5 to 4 hours of culture and then absorbance was read at 490 nm on an Enspire Multimode plate reader (PerkinElmer).

recombinant human IL-13 = recombinant human IL-13 (Homo sapiens, UniProt P35225); experiment: TF-1 cell proliferation bioassay with rhIL-13; type: cell-based; details: rhIL-13 4 ng/ml; inhibitor 10 μg/ml and 2.5 μg/ml; 48 hours; FIG. 1
Experimental: The various simplified sulphated glycoconjugates inhibited the proliferation of an IL-13 responsive cell line to differing degrees. This occurs at very low doses and is believed not to be due to a toxic effect of the glycoconjugates because other, similarly sulfated polysaccharides (e.g. sucrose octasulfate), at the same concentrations of IL-13 and polysaccharide have no effect. These experiments utilize the TF-1 cells that are grown in 2 ng/ml recombinant human (rh) GM-CSF. TF-1 cells were originally established from a bone marrow sample from a person with severe pancytopenia. These cells are dependent on IL-3 or GM-CSF for long term growth and are responsive to a variety of human cytokines including IL-13.
as §1, with “rhIL-13” for “rhIL-4”

recombinant human IL-13, sequence (P35225 25-146): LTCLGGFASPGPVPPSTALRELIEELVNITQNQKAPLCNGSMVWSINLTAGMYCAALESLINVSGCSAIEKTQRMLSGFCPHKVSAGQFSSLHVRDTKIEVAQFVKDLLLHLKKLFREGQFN

O=S(=O)(O)OC[C@H]1O[C@@](COS(=O)(=O)O)(O[C@H]2O[C@H](COS(=O)(=O)O)[C@@H](OS(=O)(=O)O)[C@H](OS(=O)(=O)O)[C@H]2OS(=O)(=O)O)[C@@H](OS(=O)(=O)O)[C@@H]1OS(=O)(=O)O [sucrose octasulfate]
inhibition of IL-4 stimulated TF-1 cell proliferation (recombinant human IL-4): no effect
inhibition of IL-13 stimulated TF-1 cell proliferation (recombinant human IL-13): no effect
